The source of these data is patent publication US20260083669A1, “AQUEOUS GEL COMPOSITION” (Acousia Therapeutics GmbH, priority 2022, published 2026).

A short description of one series: Solubility in water. Format: physicochemical. The conditions noted are these: 24 °C, room temperature (22-26° C.).
The nature of series [1]: Viscosity test: temperature-induced rise in viscosity. Type of series: physicochemical. The conditions noted are these: 15% poloxamer 407 gel with 2% API vs without. On the procedure: The viscosity normally is measured with a viscometer, in particular a rheometer. A rheometer usually is a laboratory device measuring flow characteristics of a liquid, suspension or slurry in response to applied forces. A common device type is a so called shear rheometer, in which a shear stress is applied to the corresponding material. Devices which can be used to measure the viscosity of the aqueous gel compositions according to the invention are rheometers from Brookfield (AMETEK Brookfield). […]
Note: Maximal Viscosity is Identical for all Formulations (Due to the Test Method)

Series [2] in a line: Pharmacokinetic study after unilateral transtympanic administration (plasma, inner ear, perilymph, brain). Type of series: in vivo, female Sprague Dawley rats. The conditions noted are these: rat; for concentration at 14 days: 14 days after administration; for ACOU085 plasma concentration / ACOU085 brain concentration: 6% thermo-reversible formulation 1.2 mg/animal unilateral transtympanic. On the procedure: Eighteen female Sprague Dawley rats entered a pharmacokinetic study, to determine the distribution of a 6% thermo-reversible ACOU085 formulation at a dose of 1.2 mg/animal after unilateral transtympanic administration in peripheral plasma, inner ear, perilymph, brain and CSF.
4, 24, 48, 96, 168 and 336 h after dosing n=3 rats out of every group were euthanized with carbon dioxide, peripheral and final blood samples and brain were taken and inner ears were dissected to analyze ACOU085 concentrations. Body weight was assessed on the day 1-4, on day 7 and day 14. Animals were checked for any clinical signs associated with toxicity of the test substance.

The mark [3] stands for this setting: 6% thermo-reversible formulation 1.2 mg/animal transtympanic.

Structures are written as SMILES. “And” between values parts separate entries of the source, which are not always exact repeats. Equal entries are not always repeated. Where two headings read alike, the source gives them in different places.

The term solubility denotes the concentration that dissolves in the medium under given conditions. A high value points to a readily soluble substance. `O=C(NCc1cccc(S(F)(F)(F)(F)F)c1)[C@H]1C[C@@H]2CC[C@H]1C2` (racemic) [Compound A, (1SR,2SR,4RS)—N-(3-(pentafluoro-λ6-sulfanyl)benzyl) bicyclo[2.2.1]heptane-2-carboxamide] displayed a solubility in the series “Solubility in water” below 1000 µg/mL.

In turn, `O=C(NCc1cccc(S(F)(F)(F)(F)F)c1)[C@H]1C[C@@H]2CC[C@H]1C2` [ACOU085, (1S,2S,4R)—N-(3-(pentafluorosulfanyl)benzyl) bicyclo[2.2.1]heptane-2-carboxamide] had a solubility in the series “Solubility in water” below 1000 µg/mL. In addition, in series [1], the “effect of API on the viscosity-temperature relation of the formulation” value is given as “no effect”. Also, the concentration at 336 h in series [2] (female, Sprague Dawley, other: transtympanic, perilymph, 6% formulation 1.2 mg/animal unilateral transtympanic, Left side, 336 h, animals 1-3, read-out: Uptake of ACOU085 into the perilymph: ACOU085 inner ear concentration) came out at 4 nM. Besides, the concentration at 14 days came to 8 nM in series [2] (female, Sprague Dawley, brain, other: transtympanic, 1.2 mg/animal, read-out: brain concentration (average)) and 4 nM in series [2] (female, Sprague Dawley, plasma, other: transtympanic, 1.2 mg/animal, read-out: plasma concentration (average)). Also, the concentration at 4 h in series [2] (female, Sprague Dawley, inner ear, left side, other: transtympanic, 1.2 mg/animal, 6% formulation 1.2 mg/animal unilateral transtympanic, Left side, 4 h, animals 1-3, read-out: ACOU085 inner ear concentration) is 55 nM. This compound gave a concentration at 7 days in series [2] (female, Sprague Dawley, plasma, other: transtympanic, 1.2 mg/animal, after 7 days) of 26 nM. Further, the “ACOU085 inner ear concentration” value in series [2] (6% formulation 1.2 mg/animal unilateral transtympanic, Left side, 4 h, animals 1-3) is 82 nmol/L and 93 nmol/L. Besides, the “maximal average concentration in brain” value in series [2] (setting [3]) came out at 82 nmol/L. The “maximal average concentration in plasma” value in series [2] (setting [3]) worked out at 45 nmol/L. Besides, the ACOU085 plasma concentration in series [2] (4 h (printed 4 11), animals 1-3) was 9 nnmol/L and 6 nnmol/L and 12 nnmol/L; in series [2] (48 h, animals 1-3), 12 nnmol/L and 18 nnmol/L and 16 nnmol/L; in series [2] (96 h, animals 1-3) it was 48 nnmol/L and 26 nnmol/L and 33 nnmol/L. Also, the ACOU085 brain concentration in series [2] (48 h, animals 1-3) was 38 nnmol/L and 53 nnmol/L and 76 nnmol/L; in series [2] (96 h, animals 1-3) it was 94 nnmol/L and 52 nnmol/L and 68 nnmol/L. Moreover, the “time of peak brain concentration” value in series [2] (after injection) is 96 h. The “uptake into the brain and into the plasma” value in series [2] (compared with inner ear tissue and perilymph) was “low in comparison to the inner ear tissue and perilymph”. In series [2] (perilymph, 6% formulation 1.2 mg/animal unilateral transtympanic, Left side, 336 h, animals 1-3), the “Uptake of ACOU085 into the perilymph: ACOU085 inner ear concentration” value is 3 nmol/L and 2 nmol/L.
